In patent US9113629B2, “4-amino-6-(4-substituted-phenyl)-picolinates and 6-amino-2-(4-substituted-phenyl)-pyrimidine-4-carboxylates and their use as herbicides” (DOW AGROSCIENCES LLC, priority 2013, dated 2015):
Where two headings read alike, the source gives them in different places.

Tests used:
[1] = system: Key Broadleaf Weed and Crop Species; experiment: Post-emergent Test II herbicidal activity (Table 5); format: in vivo; details: post-emergence, 336 h, 14 days after application; for pest or weed control at 66 g/ha: application rate 66 g ai/ha; for pest or weed control at 132 g/ha: application rate 132 g ai/ha
Outline: (§1)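 Plants grown in Metro-Mix 360 (pH 6.0–6.8) in a greenhouse (~15 h photoperiod, 23–29 °C day) to first or second true leaf stage, then sprayed with compound in acetone/DMSO/aqueous crop-oil-surfactant carrier at 187 L/ha by track sprayer. Injury visually scored 0–100% versus untreated plants after 14 d.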

[2] = system: Key Grass and Sedge Weeds as well as Grass Crops; experiment: Post-emergent Test II herbicidal activity (Table 6); format: in vivo; details: post-emergence, 336 h; for pest or weed control at 66 g/ha: 66 g ai/ha; for pest or weed control at 132 g/ha: 132 g ai/ha
Outline: as §1

[3] = ABUTH: velvetleaf (Abutilon theophrasti), read-out: Visual Growth Reduction (%) 14 Days After Application, ABUTH
[4] = AMARE: redroot pigweed (Amaranthus retroflexus), read-out: Visual Growth Reduction (%) 14 Days After Application, AMARE
[5] = BRSNN: oilseed-rape, canola (Brassica napus), read-out: Visual Growth Reduction (%) 14 Days After Application, BRSNN
[6] = CHEAL: lambsquarters (Chenopodium album), read-out: Visual Growth Reduction (%) 14 Days After Application, CHEAL
[7] = EPHHL: wild poinsettia (Euphorbia heterophylla), read-out: Visual Growth Reduction (%) 14 Days After Application, EPHHL
[8] = HELAN: sunflower (Helianthus annuus), read-out: Visual Growth Reduction (%) 14 Days After Application, HELAN
[9] = VIOTR: wild pansy (Viola tricolor), read-out: Visual Growth Reduction (%) 14 Days After Application, VIOTR
[10] = CYPES: yellow nutsedge (Cyperus esculentus), read-out: Visual Growth Reduction (%) 14 Days After Application, CYPES
[11] = DIGSA: crabgrass (Digitaria sanguinalis), read-out: Visual Growth Reduction (%) 14 Days After Application, DIGSA
[12] = ECHCG: barnyardgrass (Echinochloa crus-galli), read-out: Visual Growth Reduction (%) 14 Days After Application, ECHCG
[13] = ORYSA: rice (Oryza sativa), crop, read-out: Visual Growth Reduction (%) 14 Days After Application, ORYSA
[14] = SETFA: giant foxtail (Setaria faberi), read-out: Visual Growth Reduction (%) 14 Days After Application, SETFA
[15] = SORVU: grain sorghum (Sorghum vulgare), read-out: Visual Growth Reduction (%) 14 Days After Application, SORVU
[16] = TRZSS (wheat, Triticum aestivum), crop, read-out: Visual Growth Reduction (%) 14 Days After Application, TRZSS
[17] = ZEAMX: maize, corn (Zea mays), crop, read-out: Visual Growth Reduction (%) 14 Days After Application, ZEAMX

COC(=O)c1nc(-c2ccc(C)c(F)c2)c(F)c(N)c1Cl [Compound 213]
melting point: 127 °C
pest or weed control at 66 g/ha [1, 3]: 95 to 100%
pest or weed control at 132 g/ha [1, 3]: 95 to 100%
pest or weed control at 66 g/ha [1, 4]: 95 to 100%
pest or weed control at 132 g/ha [1, 4]: 95 to 100%
pest or weed control at 66 g/ha [1, 5]: 85 to 94%
pest or weed control at 132 g/ha [1, 5]: 85 to 94%
pest or weed control at 66 g/ha [1, 6]: 95 to 100%
pest or weed control at 132 g/ha [1, 6]: 95 to 100%
pest or weed control at 66 g/ha [1, 7]: 95 to 100%
pest or weed control at 132 g/ha [1, 7]: 95 to 100%
pest or weed control at 66 g/ha [1, 8]: 95 to 100%
pest or weed control at 132 g/ha [1, 8]: 95 to 100%
pest or weed control at 66 g/ha [1, 9]: 0 to 29%
pest or weed control at 132 g/ha [1, 9]: 0 to 29%
pest or weed control at 66 g/ha [2, 10]: 0 to 29%
pest or weed control at 132 g/ha [2, 10]: 45 to 59%
pest or weed control at 66 g/ha [2, 11]: 0 to 29%
pest or weed control at 132 g/ha [2, 11]: 0 to 29%
pest or weed control at 66 g/ha [2, 12]: 85 to 94%
pest or weed control at 132 g/ha [2, 12]: 85 to 94%
pest or weed control at 66 g/ha [2, 13]: 0 to 29%
pest or weed control at 132 g/ha [2, 13]: 0 to 29%
pest or weed control at 66 g/ha [2, 14]: 0 to 29%
pest or weed control at 132 g/ha [2, 14]: 0 to 29%
pest or weed control at 66 g/ha [2, 15]: 75 to 84%
pest or weed control at 132 g/ha [2, 15]: 95 to 100%
pest or weed control at 66 g/ha [2, 16]: 0 to 29%
pest or weed control at 132 g/ha [2, 16]: 0 to 29%
pest or weed control at 66 g/ha [2, 17]: 60 to 74%
pest or weed control at 132 g/ha [2, 17]: 75 to 84%
